# Test results published in US9302999B2, “Substituted triazoles as herbicides” (E. I. DU PONT DE NEMOURS AND COMPANY, priority 2012, dated 2016).
# How the values were obtained:
# kochia (Kochia scoparia) = assay: Test F pre-/postemergence: kochia; type: in vivo; settings: Preemergence, scale 0 to 100
# Method in brief: (§1)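 Preemergence treatment of seeds sown in silt loam soil, and postemergence treatment of plants 2–18 cm tall (1- to 4-leaf stage), with compounds in non-phytotoxic solvent plus surfactant. Greenhouse 14–21 days, then visual rating versus controls on 0–100 scale (100 = complete control).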
# [1] = tested on: barnyardgrass (Echinochloa crus-galli); assay: Test F pre-/postemergence: barnyardgrass; type: in vivo; settings: Preemergence, scale 0 to 100
# Method in brief: as §1
# [2] = tested on: foxtail, giant (giant foxtail, Setaria faberii); assay: Test F pre-/postemergence: foxtail, giant; type: in vivo; settings: Preemergence, scale 0 to 100
# Method in brief: as §1
# [3] = tested on: ragweed (common ragweed, Ambrosia elatior); assay: Test F pre-/postemergence: ragweed; type: in vivo; settings: Preemergence, scale 0 to 100
# Method in brief: as §1
# [4] = tested on: Russian thistle (Salsola iberica); assay: Test D pre-/postemergence: Russian thistle; type: in vivo; settings: Postemergence
# Method in brief: (§2)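 Pre- and postemergence herbicide screen. Soil for pre: silt loam; post medium: peat moss, vermiculite, wetting agent, starter nutrients. Plant stage at post: 1- to 4-leaf. Readout: visual % control, 14–21 days.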
# [5] = tested on: goosegrass (Eleusine indica); assay: Test F pre-/postemergence: goosegrass; type: in vivo; settings: Preemergence, scale 0 to 100
# Method in brief: as §1
# [6] = tested on: crabgrass, large (large crabgrass, Digitaria sanguinalis); assay: Test F pre-/postemergence: crabgrass, large; type: in vivo; settings: Preemergence, scale 0 to 100
# Method in brief: as §1
# [7] = tested on: pigweed (Amaranthus retroflexus); assay: Test D pre-/postemergence: pigweed; type: in vivo
# Method in brief: as §2
# Waterhemp = assay: Test C preemergence: waterhemp; type: in vivo, Amaranthus rudis; settings: scale 0 to 100, 0 no effect, 100 complete control
# corn (Zea mays) = assay: Test F pre-/postemergence: corn; type: in vivo; settings: Preemergence, scale 0 to 100
# Method in brief: as §1
# Oilseed Rape = assay: Test C preemergence: oilseed rape; type: in vivo; settings: scale 0 (no effect) to 100 (complete control)
smiles,measurement,setting,value
CCc1nn(-c2ccc(C(F)(F)F)cc2)nc1Cc1ccnc(C(F)(F)F)c1 [Compound 155],"Plant response rating, Kochia",kochia (Kochia scoparia); 62 g ai/ha,70
same,"Plant response rating, Kochia",kochia (Kochia scoparia); 125 g ai/ha,98
same,"Plant response rating, Kochia",kochia (Kochia scoparia); 250 g ai/ha,100
same,"Plant response rating, Barnyardgrass",[1]; 62 g ai/ha,30
same,"Plant response rating, Barnyardgrass",[1]; 125 g ai/ha,30
same,"Plant response rating, Barnyardgrass",[1]; 250 g ai/ha,100
same,"Plant response rating, Foxtail, Giant",[2]; 62 g ai/ha,98
same,"Plant response rating, Foxtail, Giant",[2]; 125 g ai/ha,100
same,"Plant response rating, Foxtail, Giant",[2]; 250 g ai/ha,100
same,"Plant response rating, Ragweed",[3]; 125 g ai/ha,50
same,"Plant response rating, Ragweed",[3]; 250 g ai/ha,80
same,Plant response rating: Russian Thistle,"[4]; 31 g ai/ha, scale 0 to 100 (0 no effect, 100 complete control)",80
same,Plant response rating: Russian Thistle,"[4]; 62 g ai/ha, scale 0 to 100 (0 no effect, 100 complete control)",85
same,Plant response rating: Russian Thistle,"[4]; 125 g ai/ha, scale 0 to 100, 0 no effect, 100 complete control",85
same,"Plant response rating, Russian Thistle","[4]; 16 g ai/ha, scale 0 to 100",70
same,"Plant response rating, Goosegrass",[5]; 62 g ai/ha,100
same,"Plant response rating, Goosegrass",[5]; 125 g ai/ha,100
same,"Plant response rating, Goosegrass",[5]; 250 g ai/ha,100
same,"Plant response rating, Crabgrass, Large",[6]; 62 g ai/ha,100
same,"Plant response rating, Crabgrass, Large",[6]; 125 g ai/ha,100
same,"Plant response rating, Crabgrass, Large",[6]; 250 g ai/ha,100
same,Plant response rating: Pigweed,"[7]; Postemergence, 31 g ai/ha, scale 0 to 100 (0 no effect, 100 complete control)",75
same,Plant response rating: Pigweed,"[7]; Postemergence, 62 g ai/ha, scale 0 to 100 (0 no effect, 100 complete control)",95
same,Plant response rating: Pigweed,"[7]; Postemergence, 125 g ai/ha, scale 0 to 100, 0 no effect, 100 complete control",95
same,"Plant response rating, Pigweed","[7]; Postemergence, 16 g ai/ha, scale 0 to 100",70
same,"Plant response rating, Pigweed","[7]; Preemergence, 16 g ai/ha, scale 0 to 100, 0 no effect, 100 complete control",60
same,"Plant response rating, Pigweed","[7]; Preemergence, 31 g ai/ha, scale 0 to 100, 0 no effect, 100 complete control",80
same,"Plant response rating, Pigweed","[7]; Preemergence, 62 g ai/ha, scale 0 to 100",100
same,"Plant response rating, Pigweed","[7]; Preemergence, 125 g ai/ha, scale 0 to 100",100
same,"Plant response rating, Waterhemp",Waterhemp; 125 g ai/ha,100
same,"Plant response rating, Corn",corn (Zea mays); 62 g ai/ha,10
same,"Plant response rating, Corn",corn (Zea mays); 125 g ai/ha,15
same,"Plant response rating, Corn",corn (Zea mays); 250 g ai/ha,15
CCOc1nn(-c2ccc(Cl)cc2)nc1Cc1ccnc(C(F)(F)F)c1 [Compound 188],"Plant response rating, Oilseed Rape",Oilseed Rape; 31 g ai/ha,20
same,"Plant response rating, Waterhemp",Waterhemp; 125 g ai/ha,100
same,"Plant response rating, Waterhemp",Waterhemp; 250 g ai/ha,100
FCc1nn(-c2ccc(F)cc2)nc1Oc1ccnc(C(F)(F)F)c1 [Compound 160],"Plant response rating, Oilseed Rape",Oilseed Rape; 16 g ai/ha,0
same,"Plant response rating, Waterhemp",Waterhemp; 125 g ai/ha,100
